The values below come from BindingDB's records for doi:10.1016/j.bmcl.2003.09.058 (Pharmacor, 2003).

A value given as a limit tells only on which side of the number the result lay.

Usually Ki stands for a measure of affinity in units of concentration, obtained from inhibition or displacement.

In this assay the target is T1, Dimer of Gag-Pol polyprotein [501-599] (Human immunodeficiency virus 1, UniProt P03367).
T1 construct: 501-599
Kind of assay: Protease Inhibition Assay. The conditions noted are these: pH 4.7; 30 °C. On the procedure: HIV-1 protease activity was measured by a continuous fluorometric assay using the internally quenched fluorogenic substrate DABCYL-Ser-Gln-Asn-Tyr-Pro-Ile-Val-Gln-EDANS. The proteolytic activity can be monitored by the increase in fluorescence intensity, and the protease products were analyzed by HPLC.
As to `Cc1ccc(S(=O)(=O)N(CC(C)C)[C@@H](CCCCNC(=O)C2CC2c2ccccc2)C(=O)O)cc1` (stereo partly drawn) [(2S)-2-[(4-methylbenzene)(2-methylpropyl)sulfonamido]-6-[(2-phenylcyclopropyl)formamido]hexanoic acid], the inhibition constant Ki was greater than 300 nM.

Molecule `Cc1ccc(S(=O)(=O)N(CC(C)C)[C@@H](CCCCNC(=O)CCCc2ccccc2)C(=O)O)cc1` [(2S)-2-[(4-methylbenzene)(2-methylpropyl)sulfonamido]-6-(4-phenylbutanamido)hexanoic acid] yielded an inhibition constant (Ki) greater than 300 nM.

Regarding `Cc1ccc(S(=O)(=O)N(CC(C)C)[C@@H](CCCCNC(=O)c2ccccc2)C(=O)O)cc1` [(2S)-2-[(4-methylbenzene)(2-methylpropyl)sulfonamido]-6-(phenylformamido)hexanoic acid], the Ki is greater than 300 nM.

The molecule `Cc1ccc(S(=O)(=O)N(CC(C)C)[C@@H](CCCCNC(=O)C(Cc2ccccc2)C(C)(C)C)C(=O)O)cc1` (stereo partly drawn) [(2S)-6-(2-benzyl-3,3-dimethylbutanamido)-2-[(4-methylbenzene)(2-methylpropyl)sulfonamido]hexanoic acid] registered an inhibitory constant (Ki) greater than 300 nM.

Consider `Cc1ccc(S(=O)(=O)N(CC(C)C)[C@@H](CCCCNC(=O)Cc2ccccc2)C(=O)O)cc1` [(2S)-2-[(4-methylbenzene)(2-methylpropyl)sulfonamido]-6-(1-phenylacetamido)hexanoic acid], for which the Ki is greater than 300 nM.

The molecule `Cc1ccc(S(=O)(=O)N(CC(C)C)[C@@H](CCCCNC(=O)OCc2ccccc2)C(=O)O)cc1` [(2S)-6-{[(benzyloxy)carbonyl]amino}-2-[(4-methylbenzene)(2-methylpropyl)sulfonamido]hexanoic acid] displayed a Ki greater than 300 nM.

`Cc1ccc(S(=O)(=O)N(CC(C)C)[C@@H](CCCCNC(=O)/C=C/c2ccccc2)C(=O)O)cc1` [(2S)-2-[(4-methylbenzene)(2-methylpropyl)sulfonamido]-6-[(2E)-3-phenylprop-2-enamido]hexanoic acid] displayed a Ki greater than 300 nM.
